Measurements: patent publication US7250410B2, “Cyclic nucleotide phosphodiesterase inhibitors, preparation and uses thereof” (Via Pharmaceuticals, Inc., priority 2001, dated 2007)

The compounds below were run against PDE4 (assay: Inhibition of PDE4, radioenzymatic phosphodiesterase assay). Settings: Table 1, formula (III); 1 μM cyclic AMP.
Type: biochemical, bovine
Method: A 3 g segment of bovine aortic media cut into pieces with scissors was homogenized with an ultra-turrax then a potter glass/glass homogenizer in 7 volumes by weight of buffer A containing a protease inhibitor cocktail (20 mM Tris-HCl, 0.25 M saccharose, 2 mM magnesium acetate, 1 mM dithiothreitol, 5 mM EGTA, 2000 U/ml aprotinin, 10 mg/l leupeptin and 10 mg/l soya trypsic inhibitor). The homogenizate was centrifuged at 105,000 g for 1 hour. […] The column was washed until there was no detectable absorption at 280 nm, then eluted with a linear gradient of NaCl (0–0.5 M) in buffer B. 3-ml fractions were collected and enzyme activity was determined under the conditions described hereinafter to localize the different enzymes PDE1, PDE3, PDE4 and PDE5, which were aliquoted and frozen at −80° C.
The nucleoside formed was separated from the nucleotides by anion exchange chromatography. Nucleoside radioactivity was determined by liquid scintillation counting.
`COc1cc2c(cc1OC)C(c1ccc(-c3cccc(NC(C)=O)c3)cc1)=NN(C)C(=O)C2` [IIIam, 1-[4-(3-acetamidophenyl)phenyl]-7,8-dimethoxy-3-methyl-3,5-dihydro-4H-2,3-benzodiazepin-4-one] showed an IC50 of 1.7 µM.

Same assay, conditions: Table 1, formula (III); compound at 10 μM
`COC(=O)CCCCCCCCCCCN1N=C(c2ccccc2)c2cc(OC)c(OC)cc2CC1=O` [IIIae, 7,8-dimethoxy-3-(12-methoxy-12-oxododecyl)-1-phenyl-3,5-dihydro-4H-2,3-benzodiazepin-4-one] was tested, and the “PDE4 percentage inhibition at 10 μM” value was 19%.

Same assay, conditions: Table 2, formula (XXII); 1 μM cyclic AMP
In the case of `COc1cc2c(cc1OC)C(c1ccccc1)=NC(c1ccccc1)C(=O)N2` (centres unmarked) [XXIIaz, 7,8-dimethoxy-3,5-diphenyl-1,3-dihydro-2H-1,4-benzodiazepin-2-one], the IC50 is reported as 9.5 µM.
`CCOc1cc2c(cc1OC)C(c1ccccc1)=NC(c1ccccc1)C(=O)N2` (centres unmarked) [XXIIba, 3,5-diphenyl-8-ethoxy-7-methoxy-1,3-dihydro-2H-1,4-benzodiazepin-2-one] was tested, and the IC50 was 6.7 µM.
`CCOc1cc2c(cc1OCC)C(c1ccccc1)=NC(Cc1ccccc1)C(=O)N2` (centres unmarked) [XXIIaj, 3-benzyl-7,8-diethoxy-5-phenyl-1,3-dihydro-2H-1,4-benzodiazepin-2-one] showed an IC50 of 4.4 µM.

Same assay, conditions: Table 2, formula (XXII); compound at 10 μM
With `COc1cc2c(cc1OC)C(c1ccccc1)=NC(Cc1ccccc1)C(=O)N2` (centres unmarked) [XXIIap, 3-benzyl-7,8-dimethoxy-5-phenyl-1,3-dihydro-2H-1,4-benzodiazepin-2-one] the “PDE4 percentage inhibition at 10 μM” value was 36.10%.
For `COc1cc2c(cc1OC)C(c1ccccc1)=NC(Cc1c[nH]cn1)C(=O)N2` (centres unmarked) [XXIIar, 7,8-dimethoxy-3-(1H-imidazol-4-ylmethyl)-5-phenyl-1,3-dihydro-2H-1,4-benzodiazepin-2-one], the “PDE4 percentage inhibition at 10 μM” value was 49.3%.
`COc1cc2c(cc1OC)C(c1ccccc1)=N[C@@H](Cc1ccccc1)C(=O)N2` [XXIIau, (S)-3-benzyl-7,8-dimethoxy-5-phenyl-1,3-dihydro-2H-1,4-benzodiazepin-2-one] was tested, and the “PDE4 percentage inhibition at 10 μM” value was 42.6%.

Same assay, conditions: Table 3, formula (II); 1 μM cyclic AMP
`CCN1C(=O)CN=C(c2ccc(C#CCOCc3ccccc3)cc2)c2cc(OC)c(OC)cc21` [IIbn, 5-{4-[3-(benzyloxy)prop-1-ynyl]phenyl}-1-ethyl-7,8-dimethoxy-1,3-dihydro-2H-1,4-benzodiazepin-2-one] was tested, and the IC50 was 2.95 µM.
Work on `CCOc1cc2c(cc1OC)C(c1ccccc1)=NC(Cc1cccc(C#N)c1)C(=O)N2C` (centres unmarked) [IIdf, 3-[(8-ethoxy-7-methoxy-1-methyl-2-oxo-5-phenyl-2,3-dihydro-1H-1,4-benzodiazepin-3-yl)methyl]benzonitrile] yielded an IC50 of 1.5 µM.
`CCN1C(=O)C(C(O)c2cccc(Br)c2)N=C(c2ccccc2)c2cc(OC)c(OC)cc21` (centres unmarked) [IIch, 3-[(3-bromophenyl)(hydroxy)methyl]-1-ethyl-7,8-dimethoxy-5-phenyl-1,3-dihydro-2H-1,4-benzodiazepin-2-one] was tested, and the IC50 was 9.6 µM.
`CCN1C(=O)C(Cc2cccc(OC)c2)N=C(c2ccccc2)c2cc(OC)c(OC)cc21` (centres unmarked) [IIdc, 1-ethyl-7,8-dimethoxy-3-(3-methoxybenzyl)-5-phenyl-1,3-dihydro-2H-1,4-benzodiazepin-2-one] gave an IC50 of 5.1 µM.
With `CCN1C(=O)C(Cc2cccc(C(F)(F)F)c2)N=C(c2ccccc2)c2cc(OC)c(OC)cc21` (centres unmarked) [IIdb, 1-ethyl-7,8-dimethoxy-5-phenyl-3-[3-(trifluoromethyl)benzyl]-1,3-dihydro-2H-1,4-benzodiazepin-2-one] the IC50 was 23 µM.
For `COc1cc2c(cc1OC)N(C)C(=O)CN=C2c1cccc(-c2ccccc2)c1` [IIay, 5-(1,1′-biphenyl-3-yl)-7,8-dimethoxy-1-methyl-1,3-dihydro-2H-1,4-benzodiazepin-2-one], the IC50 was 6.6 µM.
`COc1cccc(C2=NCC(=O)N(C)c3cc(OC)c(OC)cc32)c1` [IIal, 7,8-dimethoxy-5-(3-methoxyphenyl)-1-methyl-1,3-dihydro-1,4-benzodiazepin-2-one] showed an IC50 of 10 µM.
Compound `CCOc1cc2c(cc1OC)C(c1ccccc1)=NC(Cc1ccccc1)C(=O)N2CC` (centres unmarked) [IIbb, 3-benzyl-8-ethoxy-1-ethyl-7-methoxy-5-phenyl-1,3-dihydro-2H-1,4-benzodiazepin-2-one] has an IC50 of 3.13 µM.
For `CCN1C(=O)C(Cc2ccccc2OC)N=C(c2ccccc2)c2cc(OC)c(OC)cc21` (centres unmarked) [IIcr, 1-ethyl-7,8-dimethoxy-3-(2-methoxybenzyl)-5-phenyl-1,3-dihydro-2H-1,4-benzodiazepin-2-one], the IC50 was 2.7 µM.
For `CCN1C(=O)C(Cc2ccccc2N)N=C(c2ccccc2)c2cc(OC)c(OC)cc21` (centres unmarked) [IIca, 7,8-dimethoxy-1-ethyl-3-(2-aminobenzyl)-5-phenyl-1,3-dihydro-2H-1,4-benzodiazepin-2-one], the IC50 was 2.5 µM.
`CCN1C(=O)C(Cc2cccc(C(N)=O)c2)N=C(c2ccccc2)c2cc(OC)c(OC)cc21` (centres unmarked) [IIcs, 3-[(1-ethyl-7,8-dimethoxy-2-oxo-5-phenyl-2,3-dihydro-1H-1,4-benzodiazepin-3-yl)methyl]benzamide] gave an IC50 of 1.25 µM.

Same assay, conditions: Table 3, formula (II); compound at 10 μM
In the case of `COc1ccc2c(c1)N(C)C(=O)CN=C2c1ccccc1` [IIdm, 8-methoxy-1-methyl-5-phenyl-1,3-dihydro-2H-1,4-benzodiazepin-2-one], the “PDE4 percentage inhibition at 10 μM” value is reported as 16%.
With `C#CCC1N=C(c2ccccc2)c2cc(OC)c(OC)cc2N(CC)C1=O` (centres unmarked) [IIbt, 1-ethyl-7,8-dimethoxy-5-phenyl-3-prop-2-ynyl-1,3-dihydro-2H-1,4-benzodiazepin-2-one] the “PDE4 percentage inhibition at 10 μM” value was 38.4%.
`COc1cc2c(cc1OC)N(Cc1ccccc1)C(=O)CN=C2c1ccccc1` [IIbc, 1-benzyl-7,8-dimethoxy-5-phenyl-1,3-dihydro-2H-1,4-benzodiazepin-2-one] was tested, and the “PDE4 percentage inhibition at 10 μM” value was 27.2%.
For `CCN1C(=O)C(CC#N)N=C(c2ccccc2)c2cc(OC)c(OC)cc21` (centres unmarked) [IIcb, (1-ethyl-7,8-dimethoxy-2-oxo-5-phenyl-2,3-dihydro-1H-1,4-benzodiazepin-3-yl)acetonitrile], the “PDE4 percentage inhibition at 10 μM” value was 28.5%.
For `CCN1C(=O)C(Cc2ccc(C)cc2)N=C(c2ccccc2)c2cc(OC)c(OC)cc21` (centres unmarked) [IIdd, 1-ethyl-7,8-dimethoxy-3-(4-methylbenzyl)-5-phenyl-1,3-dihydro-2H-1,4-benzodiazepin-2-one], the “PDE4 percentage inhibition at 10 μM” value was 31.5%.
`CCN1C(=O)C(Cc2cccc(CN)c2)N=C(c2ccccc2)c2cc(OC)c(OC)cc21` (centres unmarked) [IIct, 3-[3-(aminomethyl)benzyl]-1-ethyl-7,8-dimethoxy-5-phenyl-1,3-dihydro-2H-1,4-benzodiazepin-2-one] was tested, and the “PDE4 percentage inhibition at 10 μM” value was 18%.
`CCN1C(=O)C(Cc2ccc(-c3ccccc3)cc2)N=C(c2ccccc2)c2cc(OC)c(OC)cc21` (centres unmarked) [IIck, 3-(1,1′-biphenyl-4-ylmethyl)-1-ethyl-7,8-dimethoxy-5-phenyl-1,3-dihydro-2H-1,4-benzodiazepin-2-one] was tested, and the “PDE4 percentage inhibition at 10 μM” value was 32.2%.
In the case of `COc1ccc2c(c1)C(c1ccccc1)=NCC(=O)N2C` [IIdl, 7-methoxy-1-methyl-5-phenyl-1,3-dihydro-2H-1,4-benzodiazepin-2-one], the “PDE4 percentage inhibition at 10 μM” value is reported as 34.6%.
In the case of `COc1cc2c(cc1OC)N(C)C(=O)[C@H](Cc1ccccc1)N=C2c1ccccc1` [IIdj, (S)-3-benzyl-7,8-dimethoxy-1-methyl-5-phenyl-1,3-dihydro-2H-1,4-benzodiazepin-2-one], the “PDE4 percentage inhibition at 10 μM” value is reported as 48.3%.

Same assay, conditions: Table 3, formula (II); compound at 10 μM; 10 µM
`CCN1C(=O)C(Cc2ccc(Cl)cc2)N=C(c2ccccc2)c2cc(OC)c(OC)cc21` (centres unmarked) [IIbq, 3-(4-chlorobenzyl)-1-ethyl-7,8-dimethoxy-5-phenyl-1,3-dihydro-2H-1,4-benzodiazepin-2-one] was tested, and the “PDE4 percentage inhibition at 10 μM” value was 33.8%.
